Key:
human Edg 7 receptors = target: T1, human Edg 7 receptors (Homo sapiens, UniProt Q9UBY5); assay: LPA-stimulated calcium mobilization (FLIPR) in HTC cells expressing Edg-7; type: cell-based
T1 construct: expressed in transfected cells; host or cells: HTC rat hepatoma cells
T1 sequence (Q9UBY5 1-353): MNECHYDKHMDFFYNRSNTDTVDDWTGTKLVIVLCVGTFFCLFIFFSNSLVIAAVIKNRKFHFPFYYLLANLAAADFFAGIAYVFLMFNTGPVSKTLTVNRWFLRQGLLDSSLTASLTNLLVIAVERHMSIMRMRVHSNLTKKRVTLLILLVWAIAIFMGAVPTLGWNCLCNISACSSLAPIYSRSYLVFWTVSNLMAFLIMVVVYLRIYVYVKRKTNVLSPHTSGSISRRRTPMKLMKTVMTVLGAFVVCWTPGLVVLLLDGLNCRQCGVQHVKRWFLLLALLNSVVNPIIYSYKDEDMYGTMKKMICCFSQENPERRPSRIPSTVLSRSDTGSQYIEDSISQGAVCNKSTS
Method: The compounds were tested in HTC cells expressing human Edg 7 receptors, as well as in HT1080 human fibrosarcoma cell lines that naturally express Edg 7 receptors. […] The compounds are tested in this recombinant system first, and subsequently tested in cell lines expressing Edg-7 (in addition to other Edg receptors).
LPA receptors such as Edg-7, couple to calcium effector pathways, and result in increases in intracellular calcium following receptor activation (An, 1998, J. Cell. Biochem Supp. 30-31:147-157). This biological response lends itself to a very efficient, high-throughput screen using a Fluorescence Imaging Plate Reader (FLIPR; Molecular Devices, Sunnyvale, Calif.). The FLIPR system is a real-time, cell-based assay system with continuous fluorescence detection using a cooled CCD camera. The FLIPR system was used to developing an Edg-7 receptor screen. Rat hepatoma cells stably expressing Edg-7 receptor were plated on 384-well plates and loaded with a calcium dye loading kit (Molecular Devices, Sunnyvale, Calif.) for 1 hour at room temperature. Cells were then placed on the FLIPR^384 (Molecular Devices, Sunnyvale, Calif.) and excited by an argon laser at 488 nm. The data for the entire 384-well plate was updated every second. An integrated robotic pipettor allowed for simultaneous compound addition into each individual well in the plate.

Edg-2 = target: T2, Edg-2 (Homo sapiens, UniProt Q92633); assay: LPA-stimulated calcium increases in HTC cells expressing Edg-2; type: cell-based; conditions: concentrations as high as 10 μM
T2 construct: expressed in transfected cells; host or cells: HTC rat hepatoma cells
T2 sequence (Q92633 whole entry): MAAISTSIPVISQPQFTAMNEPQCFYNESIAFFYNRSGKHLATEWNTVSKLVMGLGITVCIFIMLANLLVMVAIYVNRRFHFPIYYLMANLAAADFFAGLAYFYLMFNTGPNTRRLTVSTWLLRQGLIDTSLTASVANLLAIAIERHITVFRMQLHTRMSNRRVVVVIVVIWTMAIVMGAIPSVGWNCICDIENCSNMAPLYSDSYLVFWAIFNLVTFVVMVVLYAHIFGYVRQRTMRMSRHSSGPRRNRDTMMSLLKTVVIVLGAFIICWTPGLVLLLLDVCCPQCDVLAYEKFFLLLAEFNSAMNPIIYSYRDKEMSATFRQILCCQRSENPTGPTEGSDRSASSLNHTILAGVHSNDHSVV

Edg4 = assay: LPA-stimulated calcium increases in HTC cells expressing Edg4; type: cell-based; conditions: concentrations as high as 10 μM
Edg-1 = target: T3, Edg-1 (Homo sapiens, UniProt P21453); assay: S1P-stimulated calcium increases in HTC cells expressing Edg-1; type: cell-based; conditions: concentrations as high as 10 μM
T3 construct: expressed in transfected cells; host or cells: HTC rat hepatoma cells
T3 sequence (P21453 whole entry): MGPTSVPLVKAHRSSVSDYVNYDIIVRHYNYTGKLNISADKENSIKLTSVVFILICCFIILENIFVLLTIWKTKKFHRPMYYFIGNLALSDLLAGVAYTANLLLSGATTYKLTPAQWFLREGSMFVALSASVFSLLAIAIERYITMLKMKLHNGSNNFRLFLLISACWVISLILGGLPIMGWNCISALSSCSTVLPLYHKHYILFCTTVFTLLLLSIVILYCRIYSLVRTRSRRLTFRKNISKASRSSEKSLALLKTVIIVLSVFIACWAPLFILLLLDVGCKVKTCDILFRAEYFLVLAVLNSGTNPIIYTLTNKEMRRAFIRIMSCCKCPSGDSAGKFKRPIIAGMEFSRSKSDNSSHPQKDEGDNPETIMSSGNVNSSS

Edg-3 = target: T4, Edg-3 (Homo sapiens, UniProt Q99500); assay: S1P-stimulated calcium increases in HTC cells expressing Edg-3; type: cell-based; conditions: concentrations as high as 10 μM
T4 construct: expressed in transfected cells; host or cells: HTC rat hepatoma cells
T4 sequence (Q99500 whole entry): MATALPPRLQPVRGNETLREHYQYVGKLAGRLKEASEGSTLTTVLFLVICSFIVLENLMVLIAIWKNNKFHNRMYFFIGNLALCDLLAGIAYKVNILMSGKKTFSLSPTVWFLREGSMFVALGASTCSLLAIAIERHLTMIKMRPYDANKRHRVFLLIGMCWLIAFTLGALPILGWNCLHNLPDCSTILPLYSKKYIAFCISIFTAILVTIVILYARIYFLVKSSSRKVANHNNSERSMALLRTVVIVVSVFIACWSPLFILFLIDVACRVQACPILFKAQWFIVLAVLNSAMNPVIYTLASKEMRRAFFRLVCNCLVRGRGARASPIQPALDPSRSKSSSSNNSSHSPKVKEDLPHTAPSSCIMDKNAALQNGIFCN

Edg-5 = target: T5, Edg-5 (Homo sapiens, UniProt O95136); assay: S1P-stimulated calcium increases in HTC cells expressing Edg-5; type: cell-based; conditions: concentrations as high as 10 μM
T5 construct: expressed in transfected cells; host or cells: HTC rat hepatoma cells
T5 sequence (O95136 whole entry): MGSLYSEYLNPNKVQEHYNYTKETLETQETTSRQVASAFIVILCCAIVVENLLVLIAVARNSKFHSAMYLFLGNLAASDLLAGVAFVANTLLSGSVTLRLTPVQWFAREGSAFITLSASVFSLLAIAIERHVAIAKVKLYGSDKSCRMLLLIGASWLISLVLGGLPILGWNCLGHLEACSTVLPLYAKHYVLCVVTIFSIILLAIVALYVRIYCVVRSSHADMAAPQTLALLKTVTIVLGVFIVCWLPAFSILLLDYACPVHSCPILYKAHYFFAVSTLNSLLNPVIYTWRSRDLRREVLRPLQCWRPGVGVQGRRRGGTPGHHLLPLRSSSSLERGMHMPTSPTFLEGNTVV

Edg-8 = target: T6, Edg-8 (Homo sapiens, UniProt Q9H228); assay: S1P-stimulated calcium increases in HTC cells expressing Edg-8; type: cell-based; conditions: concentrations as high as 10 μM
T6 construct: expressed in transfected cells; host or cells: HTC rat hepatoma cells
T6 sequence (Q9H228 whole entry): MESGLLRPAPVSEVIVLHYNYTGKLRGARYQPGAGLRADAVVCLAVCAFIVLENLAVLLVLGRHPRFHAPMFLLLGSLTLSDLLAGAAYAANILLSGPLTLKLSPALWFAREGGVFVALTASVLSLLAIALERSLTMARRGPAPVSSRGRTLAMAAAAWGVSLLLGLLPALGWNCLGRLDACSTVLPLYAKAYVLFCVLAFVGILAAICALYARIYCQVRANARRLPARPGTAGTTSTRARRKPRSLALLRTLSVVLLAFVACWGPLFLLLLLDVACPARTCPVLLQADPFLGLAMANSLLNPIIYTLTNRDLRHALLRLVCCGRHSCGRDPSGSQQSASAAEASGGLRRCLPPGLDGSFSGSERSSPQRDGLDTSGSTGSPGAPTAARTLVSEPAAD

[1] = test system: targets, including GPCRs and ion channels; assay: Pharmacology profiling: radioligand binding assays on non-Edg targets; conditions: Section 6.10 panel: adrenergic α1, α2, β, angiotensin AT2, calcium channel Type L, dopamine D2L, endothelin ETA, histamine H1, muscarinic, serotonin 5-HT1; significance criteria ≧50%
Method: In order to test the selectivity of compounds, various enzyme assays as well as radioligand binding assays were performed using numerous non-Edg receptor targets as listed below.
A radioligand binding assay was performed using adrenergic α1 according to the method of Greengrass and Bremner 1979, Eur. J. Pharmacol. 55:323-326. A radioligand binding assay was performed using adrenergic α2 according to the method of Boyajian and Leslie, 1987, J. Pharmacol. Exp. Ther. 241:1092-1098. A radioligand binding assay was performed using adrenergic β according to the method of Feve et al., 1994, Proc. Natl. Acad. Sci. USA 91:5677-5681. A radioligand binding assay was performed using angiotensin AT2 according to the method of Whitebread et al., 1991, Biochem. Biophys. Res. Comm. 181:1365-1371. A radioligand binding assay was performed using calcium channel Type L, dihydropyridine according to the method of Ehlert et al., 1982, Life Sci. 30:2191-2202. A radioligand binding assay was performed using dopamine D2L according to the method of Bunzo et al., 1988, Nature 336:783-787. A radioligand binding assay was performed using endothelin ETA according to the method of Mihara et al., 1994, J. Phrmacol. Exp Ther. 268:1122-1127. A radioligand binding assay was performed using histamine H1 Central according to the method of Hill et al., 1978, J. Neurochem. 31:997-1004. […]

SMILES | inhibition of the Edg-7 receptor (human Edg 7 receptors; FIG. 1, HTC cells) | inhibition of Edg-7 stimulated LPA responses (human Edg 7 receptors; HTC cells expressing human Edg 7 receptors, as well as HT1080 human fibrosarcoma cell lines) | inhibition of LPA-stimulated calcium increases (Edg-2) | inhibition of LPA-stimulated calcium increases (Edg4) | inhibition of S1P-stimulated calcium increases (Edg-1) | inhibition of S1P-stimulated calcium increases (Edg-3) | inhibition of S1P-stimulated calcium increases (Edg-5) | inhibition of S1P-stimulated calcium increases (Edg-8) | activity in radioligand binding assays [1] | melting point [°C]
CCOC(=O)c1c(NC(=O)NS(=O)(=O)c2ccccc2Cl)sc2c1CCCC2 [Compound 101] | specifically inhibit | demonstrate inhibition | did not inhibit | did not inhibit | did not inhibit | did not inhibit | did not inhibit | did not inhibit | no significant activity | 
Cc1cc(C)c2c(c1)Cc1ccccc1S2(=O)=O [Compound 133, 2,4-Dimethyl-9H-thioxanthene 10,10-dioxide] |  |  |  |  |  |  |  |  |  | 103 to 105
COc1ccc(-c2nc3ccc(C(=O)O)cc3nc2-c2ccc(OC)cc2)cc1 [Compound 129, 2,3-bis-(4-Methoxyphenyl)quinoxaline-6-carboxylic acid] |  |  |  |  |  |  |  |  |  | 284 to 285

Reference: patent publication US20040167165A1, “Methods of treating conditions associated with an Edg-7 receptor” (priority 2003, published 2004)
